{
  "source": "patent US6946125B2",
  "about": "“Methods of treating West Nile virus infection” (The New York Hospital Medical Center of Queens, priority 2000, dated 2005)",
  "key": {"[1]": {"settings": "cited from earlier work"}, "mice [2]": {"tested_on": "mice", "settings": "cited from earlier work"}, "[3]": {"tested_on": "green monkey kidney cells", "test": "Cytotoxic effect of ribavirin in cell culture", "type": "cell-based", "method": "(§1) In vitro: Studies have been conducted utilized a bovine kidney cell monolayer infected with a strain of WNV isolated from mosquitoes and birds in Connecticut. Cytotoxicity was assayed by measuring the decrease in release of lactate dehydrogenase from infected cells, as compared with uninfected controls."}, "[4]": {"settings": "after 600 mg given every 6 hours; cited from earlier work"}, "mice [5]": {"tested_on": "mice", "test": "Mutagenicity of ribavirin in mice", "settings": "from mice"}, "West Nile virus (WNV)": {"tested_on": "West Nile virus (WNV)", "test": "Suppression of West Nile virus in Vero cell culture, colorimetric assay of cellular lactic dehydrogenase (O.D. 490)", "settings": "for Mean O.D. 490 value: Vero cells", "method": "The vertical axis represents a colorimetric assay of cellular lactic dehydrogenase which is directly proportional to cell viability and proliferation.\nas §1"}},
  "data": [
    {"molecule": "NC(=O)c1ncn([C@@H]2O[C@H](CO)[C@@H](O)[C@H]2O)n1", "note": "[Ribavirin, 1-β-D-ribofuranosyl-1H-1,2,4-triazole-3-carboxamide, reference compound]", "values": [
      {"measurement": "dose at which inhibition of erythrocyte release from bone marrow occurs", "setting": "[1]; high doses", "value": 30, "unit": "mg/kg"},
      {"measurement": "reduction from baseline hematocrit", "setting": "[1]; human, in vivo", "value": "≤ 20", "unit": "%"},
      {"measurement": "reduction in baseline hemoglobin", "setting": "[1]; human, in vivo", "value": "10-12%"},
      {"measurement": "toxicity (in words)", "setting": "[1]; human, in vivo", "value": "hemolysis"},
      {"measurement": "Bioavailability", "setting": "[1]; patients with renal dysfunction", "value": "increased"},
      {"measurement": "teratogenicity", "setting": "[1]; should not be given during, or within 6 months of pregnancy", "value": "teratogenic"},
      {"measurement": "dose known to be mutagenic", "setting": "mice [2]", "value": "20 to 200", "unit": "mg/kg"},
      {"measurement": "concentration at which a cytotoxic effect occurred", "setting": "[3]", "value": "600 to 1000", "unit": "µM"},
      {"measurement": "concentration in human serum", "setting": "[4]", "value": 1000, "unit": "ng/mL"},
      {"measurement": "estimated human equivalent of mutagenic dose", "setting": "mice [5]", "value": "1.67 to 16.7", "unit": "mg/kg"},
      {"measurement": "Mean O.D. 490 value", "setting": "West Nile virus (WNV); Ribavirin 0.2 uM applied 2 hours prior to infection of cells with WNV", "value": 0.72, "unit": "c"},
      {"measurement": "Mean O.D. 490 value", "setting": "West Nile virus (WNV); Ribavirin 0.3 uM applied 2 hours prior to infection of cells with WNV", "value": 1.11, "unit": "a"},
      {"measurement": "Mean O.D. 490 value", "setting": "West Nile virus (WNV); Ribavirin 0.4 uM applied 2 hours prior to infection of cells with WNV", "value": 1.24, "unit": "b"},
      {"measurement": "Mean O.D. 490 value", "setting": "West Nile virus (WNV); Ribavirin 0.5 uM applied 2 hours prior to infection of cells with WNV", "value": 1.24, "unit": "b"},
      {"measurement": "Mean O.D. 490 value", "setting": "West Nile virus (WNV); Ribavirin 0.6 uM applied 2 hours prior to infection of cells with WNV", "value": 1.06, "unit": "a"},
      {"measurement": "concentration protective or prophylactic against infection", "setting": "West Nile virus (WNV); WNV infection of bovine kidney cells in vitro", "value": 400, "unit": "µM"},
      {"measurement": "concentration that suppressed viral replication", "setting": "West Nile virus (WNV); applied after infection", "value": 500, "unit": "µM"},
      {"measurement": "activity in vitro against WNV infection", "setting": "West Nile virus (WNV); bovine kidney cells", "value": "active"},
      {"measurement": "protective concentration expressed as mass concentration", "setting": "West Nile virus (WNV); equivalent of 400 uM", "value": "approximately 100 ug/ml"}
    ]}
  ]
}
